According to patent US8138205B2, “Heteroarylalkoxy-substituted quinolone inhibitors of PDE4” (Kalypsys, Inc., priority 2006, dated 2012):

Assays:
[1] = Solubility Protocol; assay type: physicochemical; details: aqueous buffer, thermodynamic from solid; pH 7.4, 0.1 M sodium phosphate buffer
Method: About 5 mg of a compound was mixed with 500 μL of pH 7.4, 0.1 M sodium phosphate buffer. The mixture was adjusted to the original pH of 7.4 and then mixed overnight or longer via rotary mixing. The sample was checked for pH and then filtered through a 0.45 μm filter. If the pH drifted away, the sample was adjusted to its original pH and mixed for at least 15 minutes before filtration. The filtrate was analyzed using HPLC.

[2] = Stability Protocol; assay type: physicochemical; details: pH 7.4 sodium phosphate buffer, preliminary shelf life (T90) estimated from stressed samples
Method: About 3 mg of a compound was dissolved in 3 mL of acetonitrile/water mixture (50/50). 100 μL of the stock solution was added to 20 mL each of 0.025 M pH 5.0 sodium acetate buffer (A5.0), 0.025 M pH 5.0 citrate buffer (C5.0) and 0.025 M pH 7.4 sodium phosphate buffer (P7.4). A two mL aliquot of each solution was kept in a glass vial equipped a cap lined with Teflon. Two vials containing the solution were stored at 4° C. or −20° C. as control. Other aliquots were stressed at RT, 45° C. or 75° C. for specified time check points, e.g. 1 day, 1 w, 2 w, 4 w, 8 w,12 w. The stressed samples in duplicate were assayed against the control using HPLC. The results were reported in % degradation. Preliminary shelf life (T90) was estimated assuming the rate of chemical degradation is double when the temperature is up 10° C.

[3] = target: T1, PDE4B (Homo sapiens, UniProt Q07343); assay: PDE/AK Biological Activity Assay (coupled PDE/adenylate kinase bioluminescent assay); assay type: biochemical; details: catalytic domain of PDE4B, read-out: PDE4 Enzyme IC50
T1 construct: hex-histidine (His6) (N); made in house
Description: Phosphodiesterases regulate the activity of the second messenger cyclic adenosine monophosphate (cAMP) by hydrolyzing cAMP to adenosine monophosphate (AMP). We developed a coupled PDE/AK bioluminescent high-throughput assay to measure the activity of phosphodiesterases. In the PDE/AK assay, the AMP produced from the hydrolysis of cAMP by phosphodiesterase is converted to adenosine diphosphate (ADP) by the phosphotransferase activity of adenylate kinase (also known as ADK or myokinase). Adenylate kinase will catalyze the conversion of 1 mole of AMP and 1 mole of ATP into 2 moles of ADP. Thus the conversion of AMP to ADP will result in the subsequent loss of ATP. The decrease in ATP concentration can be monitored as light output using luciferase in a reaction that requires ATP to produce light. The PDE/AK assay uses luciferase, which catalyzes the production of light from ATP present in the reaction mix. The amount of emitted light is inversely proportional to the level of AMP present in the reaction. Test compounds are incubated with the phosphodiesterases and phosphodiesterase inhibitors will decrease the rate of cAMP hydrolysis and decrease the subsequent production of AMP. Thus phosphodiesterase inhibitors will decrease the conversion of ATP to ADP and result in the greatest emission of light.
Compounds may be screened for functional potency in in vitro biochemical assays for their ability to inhibit the activity of phosphodiesterase (PDE) enzymes. A coupled PDE/AK assay was utilized to measure the inhibitory activity of compounds on PDE isoforms. The catalytic domain of PDE4B was fused to an amino-terminus hex-histidine affinity tag and purified. PDE4B enzyme was incubated with compounds for 10 minutes. Cyclic AMP substrate, ATP and adenylate kinase were then added to the PDE enzyme mix and incubated for 45 minutes at room temperature. A commercial ATP detection assay, Perkin Elmer's easyLite ATP detection reagent, was then added to measure the relative amount of ATP present in the reaction. After 10 minute incubation, the luminescent signal was quantitated with either the Perkin Elmer Viewlux or Molecular Devices Acquest or Analyst. Roflumilast and Rolipram are the positive controls used in the assay.

T1 sequence (Q07343 330-659 limits assumed, species assumed): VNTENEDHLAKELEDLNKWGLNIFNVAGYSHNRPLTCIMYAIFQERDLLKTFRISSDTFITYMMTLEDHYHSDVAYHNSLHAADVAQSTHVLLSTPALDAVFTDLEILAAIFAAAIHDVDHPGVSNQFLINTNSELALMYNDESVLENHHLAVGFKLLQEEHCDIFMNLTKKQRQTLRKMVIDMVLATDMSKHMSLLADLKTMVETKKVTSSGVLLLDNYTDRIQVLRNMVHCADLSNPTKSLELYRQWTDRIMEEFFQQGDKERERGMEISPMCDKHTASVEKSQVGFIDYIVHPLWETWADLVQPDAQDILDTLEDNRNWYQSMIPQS

| Structure (SMILES) | solubility [1] | Stability, pH 7.4 [2] | IC50 [3] |
| --- | --- | --- | --- |
| COc1ccc2c(Nc3c(Cl)cncc3Cl)cc(=O)[nH]c2c1OCCCCCC(=O)O [Example 11, 6-(4-(3,5-Dichloropyridin-4-ylamino)-7-methoxy-2-oxo-1,2-dihydroquinolin-8-yloxy)hexanoic acid] | ≥ 1000 µg/mL | + (+ indicates ≧1 Year) |  |
| COc1ccc2c(Nc3c(Cl)cncc3Cl)cc(=O)[nH]c2c1OCCCCCCN1CCN(C)CC1 [Example 15, 4-(3,5-Dichloropyridin-4-ylamino)-7-methoxy-8-(6-(4-methylpiperazin-1-yl)hexyloxy)quinolin-2(1H)-one] | ≥ 1000 µg/mL | + (+ indicates ≧1 Year) | < 1 µM |
| COc1ccc2c(Nc3c(Cl)cncc3Cl)cc(=O)[nH]c2c1OCCCCCCN1CCOCC1 [Example 16, 4-(3,5-Dichloropyridin-4-ylamino)-7-methoxy-8-(6-morpholinohexyloxy)quinolin-2(1H)-one] | ≥ 1000 µg/mL | + (+ indicates ≧1 Year) | < 1 µM |
| COc1ccc2c(Nc3c(Cl)cncc3Cl)cc(=O)[nH]c2c1OCCCN1CCOCC1 [Example 19, 4-(3,5-dichloropyridin-4-ylamino)-7-methoxy-8-(3-morpholinopropoxy)quinolin-2(1H)-one] | ≥ 1000 µg/mL | + (+ indicates ≧1 Year) | < 1 µM |
| COc1ccc2c(Nc3c(Cl)cncc3Cl)cc(=O)[nH]c2c1OCCCCCCCN1CCN(C)CC1 [Example 20, 4-(3,5-dichloropyridin-4-ylamino)-7-methoxy-8-(7-(4-methylpiperazin-1-yl)heptyloxy)quinolin-2(1H)-one] | ≥ 1000 µg/mL | + (+ indicates ≧1 Year) | < 1 µM |
| COc1ccc2c(Nc3c(Cl)cncc3Cl)cc(=O)[nH]c2c1OCCCCCCCCN1CCN(C)CC1 [Example 21, 4-(3,5-dichloropyridin-4-ylamino)-7-methoxy-8-(8-(4-methylpiperazin-1-yl)octyloxy)quinolin-2(1H)-one] | ≥ 1000 µg/mL | + (+ indicates ≧1 Year) | < 1 µM |
| COc1ccc2c(Nc3c(Cl)cncc3Cl)cc(=O)[nH]c2c1OCCCCCCN1CCNCC1 [Example 22, 4-(3,5-Dichloropyridin-4-ylamino)-7-methoxy-8-(6-(piperazin-1-yl)hexyloxy)quinolin-2(1H)-one] | ≥ 1000 µg/mL | + (+ indicates ≧1 Year) | < 1 µM |
| COc1ccc2c(Nc3c(Cl)cncc3Cl)cc(=O)[nH]c2c1OCC(C)C [Example 61, 4-(3,5-dichloropyridin-4-ylamino)-8-isobutoxy-7-methoxyquinolin-2(1H)-one] |  | + (+ indicates ≧1 Year) | < 1 µM |
| COc1ccc2c(Nc3c(Cl)cncc3Cl)cc(=O)[nH]c2c1OCCCCCc1nn[nH]n1 [Example 69, 8-(5-(2H-tetrazol-5-yl)pentyloxy)-4-(3,5-dichloropyridin-4-ylamino)-7-methoxyquinolin-2(1H)-one] |  | + (+ indicates ≧1 Year) | < 1 µM |
| COCCOCCOCCCOc1c(OC)ccc2c(Nc3c(Cl)cncc3Cl)cc(=O)[nH]c12 [Example 70, 4-(3,5-dichloropyridin-4-ylamino)-7-methoxy-8-(3-(2-(2-methoxyethoxy)ethoxy)propoxy)quinolin-2(1H)-one] | ≥ 1000 µg/mL |  | < 1 µM |
| COc1ccc2c(Nc3c(Cl)cncc3Cl)cc(=O)[nH]c2c1OCCCCCCc1nn[nH]n1 [Example 71, 8-(6-(2H-tetrazol-5-yl)hexyloxy)-4-(3,5-dichloropyridin-4-ylamino)-7-methoxyquinolin-2(1H)-one] | ≥ 1000 µg/mL |  | < 1 µM |
| COc1ccc2c(Nc3c(C)cncc3C)cc(=O)[nH]c2c1OCCCCn1ccnc1 [Example 78, 8-(4-(1H-imidazol-1-yl)butoxy)-4-(3,5-dimethylpyridin-4-ylamino)-7-methoxyquinolin-2(1H)-one] |  | + (+ indicates ≧1 Year) | < 1 µM |

Now from value to compound:

| solubility [1] | Stability, pH 7.4 [2] | IC50 [3] | Structure (SMILES) |
| --- | --- | --- | --- |
| ≥ 1000 µg/mL | + (+ indicates ≧1 Year) |  | COc1ccc2c(Nc3c(Cl)cncc3Cl)cc(=O)[nH]c2c1OCCCCCN(C)C [Example 14, 4-(3,5-Dichloropyridin-4-ylamino)-8-(5-(dimethylamino)pentyloxy)-7-methoxyquinolin-2(1H)-one] |
| ≥ 1000 µg/mL | + (+ indicates ≧1 Year) | < 1 µM | COc1ccc2c(Nc3c(Cl)cncc3Cl)cc(=O)[nH]c2c1OCCCN1CCN(C)CC1 [Example 18, 4-(3,5-dichloropyridin-4-ylamino)-7-methoxy-8-(3-(4-methylpiperazin-1-yl)propoxy)quinolin-2(1H)-one] |
| ≥ 1000 µg/mL | + (+ indicates ≧1 Year) | < 1 µM | COc1ccc2c(Nc3c(C)cncc3C)cc(=O)[nH]c2c1OCCCCCCN1CCOCC1 [Example 35, 4-(3,5-Dimethylpyridin-4-ylamino)-7-methoxy-8-(6-morpholinohexyloxy)quinolin-2(1H)-one] |
| ≥ 1000 µg/mL | + (+ indicates ≧1 Year) | < 1 µM | COc1ccc2c(Nc3c(C)cncc3C)cc(=O)[nH]c2c1OCCCCCCN(C)C [Example 38, 8-(6-(Dimethylamino)hexyloxy)-4-(3,5-dimethylpyridin-4-ylamino)-7-methoxyquinolin-2(1H)-one] |
| ≥ 1000 µg/mL |  | < 1 µM | COc1ccc2c(Nc3c(C)cncc3C)cc(=O)[nH]c2c1OCCCCC(=O)O [Example 72, 5-(4-(3,5-dimethylpyridin-4-ylamino)-7-methoxy-2-oxo-1,2-dihydroquinolin-8-yloxy)pentanoic acid] |
| ≥ 1000 µg/mL |  | < 1 µM | COc1ccc2c(Nc3c(C)cncc3C)cc(=O)[nH]c2c1OCCCCCC(=O)O [Example 73, 6-(4-(3,5-dimethylpyridin-4-ylamino)-7-methoxy-2-oxo-1,2-dihydroquinolin-8-yloxy)hexanoic acid] |
| ≥ 1000 µg/mL |  | < 1 µM | COc1ccc2c(Nc3c(C)cncc3C)cc(=O)[nH]c2c1OCCCCCCC(=O)O [Example 74, 7-(4-(3,5-dimethylpyridin-4-ylamino)-7-methoxy-2-oxo-1,2-dihydroquinolin-8-yloxy)heptanoic acid] |
| ≥ 1000 µg/mL |  | < 1 µM | COc1ccc2c(Nc3c(C)cncc3C)cc(=O)[nH]c2c1OCCCCCCCC(=O)O [Example 75, 8-(4-(3,5-dimethylpyridin-4-ylamino)-7-methoxy-2-oxo-1,2-dihydroquinolin-8-yloxy)octanoic acid] |
| < 1000 µg/mL |  | < 1 µM | COc1ccc2c(Nc3c(C)cncc3C)cc(=O)[nH]c2c1OCCCCCCCCC(=O)O [Example 76, 9-(4-(3,5-dimethylpyridin-4-ylamino)-7-methoxy-2-oxo-1,2-dihydroquinolin-8-yloxy)nonanoic acid] |
| < 1000 µg/mL |  | < 1 µM | COc1ccc2c(Nc3c(C)cncc3C)cc(=O)[nH]c2c1OCCCn1ccnc1 [Example 77, 8-(3-(1H-imidazol-1-yl)propoxy)-4-(3,5-dimethylpyridin-4-ylamino)-7-methoxyquinolin-2(1H)-one] |
|  | + (+ indicates ≧1 Year) | < 1 µM | COc1ccc2c(Nc3c(C)cncc3C)cc(=O)[nH]c2c1OCCCCCn1ccnc1 [Example 79, 8-(5-(1H-imidazol-1-yl)pentyloxy)-4-(3,5-dimethylpyridin-4-ylamino)-7-methoxyquinolin-2(1H)-one] |
| ≥ 1000 µg/mL |  | < 1 µM | COc1ccc2c(Nc3c(C)cncc3C)cc(=O)[nH]c2c1OCCCCCCn1ccnc1 [Example 80, 8-(6-(1H-imidazol-1-yl)hexyloxy)-4-(3,5-dimethylpyridin-4-ylamino)-7-methoxyquinolin-2(1H)-one] |
